From the supplement of paper PMC10627819

How the values were obtained:
S. pneumoniae D39V [1] = experiment: fitness (endpoint OD595 vs no drug) (fraction); higher = more growth; details: main component drawn
In short: (§1)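 Each well of a 384-well plate received 30 µl of culture at OD595 0.01, or 55 µl for S. pneumoniae. TSB, LB Lennox or CY served as media at 37 °C. OD595 was taken every 30 min for 14 h and corrected by subtracting the first reading. Fitness is the optical density at stationary-phase entry divided by the robust mean of no-drug controls, capped at 1.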

B. subtilis 168 [2] = experiment: as above; details: one replicate, main component drawn
In short: as §1

S. pneumoniae D39V [3] = experiment: Bliss interaction score (quartile over a dose matrix) (fitness difference); higher = more antagonism (negative = synergy); details: main component drawn
In short: (§2)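 Each plate was normalised to the robust mean of its own no-drug wells, using OD595 at entry into stationary phase, with values capped at 1. This normalised growth is the fitness value. The Bliss score is the difference between observed and product-expected fitness, with single-drug fitness inferred from the combination data and quartiles taken over technical, biological and donor/recipient replicates.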

S. aureus Newman = experiment: as above; details: main component drawn
In short: as §2

S. aureus DSM 20231 = experiment: as above; details: main component drawn
In short: as §2

B. subtilis 168 [4] = experiment: as above; details: main component drawn
In short: as §2
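For Bliss interaction score (quartile over a dose matrix) in this document: first quartile when negative (synergy) and third quartile when positive (antagonism).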

C[C@H]1COc2c(N3CCN(C)CC3)c(F)cc3c(=O)c(C(=O)O)cn1c23 [Levofloxacin] + CCC(C)C1C(=O)NC(=C)C(=O)NC(C(=O)NC(CSCC(C(=O)N1)NC(=O)/C(=C/C)/NC(=O)C(C(C)CC)N)C(=O)NC2C(SCC(NC(=O)CNC(=O)C3CCCN3C2=O)C(=O)NC(CCCCN)C(=O)NC4C(SCC(NC(=O)CNC(=O)C(NC(=O)C(NC(=O)C(NC(=O)CNC4=O)C)CC(C)C)CCSC)C(=O)NC(CC(=O)N)C(=O)NC(CCSC)C(=O)NC(CCCCN)C(=O)NC5C(SCC6C(=O)NC(C(=O)NC(CSC(C(C(=O)N6)NC(=O)C(NC5=O)C)C)C(=O)NC(CO)C(=O)NC(C(C)CC)C(=O)NC(CC7=CN=CN7)C(=O)NC(C(C)C)C(=O)NC(=C)C(=O)NC(CCCCN)C(=O)O)CC8=CN=CN8)C)C)C)CC(C)C [Nisin]
Details | fitness
B. subtilis 168 [2], first compound 0.001 µg/mL, partner 0.5 µg/mL | 0.923
B. subtilis 168 [2], first compound 0.001 µg/mL, partner 1 µg/mL | 0.88
B. subtilis 168 [2], first compound 0.001 µg/mL, partner 2 µg/mL | 0.778
B. subtilis 168 [2], first compound 0.002 µg/mL, partner 0.5 µg/mL | 0.904
B. subtilis 168 [2], first compound 0.002 µg/mL, partner 1 µg/mL | 0.871
B. subtilis 168 [2], first compound 0.002 µg/mL, partner 1.25 µg/mL | 0.883
B. subtilis 168 [2], first compound 0.002 µg/mL, partner 1.6 µg/mL | 0.744
B. subtilis 168 [2], first compound 0.002 µg/mL, partner 2 µg/mL | 0.76
B. subtilis 168 [2], first compound 0.002 µg/mL, partner 2.5 µg/mL | 0.696
B. subtilis 168 [2], first compound 0.002 µg/mL, partner 3.2 µg/mL | 0.0329
B. subtilis 168 [2], first compound 0.002 µg/mL, partner 5 µg/mL | 0.0276
B. subtilis 168 [2], first compound 0.002 µg/mL, partner 6.4 µg/mL | 0.0319
B. subtilis 168 [2], first compound 0.0039 µg/mL, partner 0.5 µg/mL | 0.898
B. subtilis 168 [2], first compound 0.0039 µg/mL, partner 1 µg/mL | 0.882
B. subtilis 168 [2], first compound 0.0039 µg/mL, partner 1.25 µg/mL | 0.888
B. subtilis 168 [2], first compound 0.0039 µg/mL, partner 1.6 µg/mL | 0.734
B. subtilis 168 [2], first compound 0.0039 µg/mL, partner 2 µg/mL | 0.747
B. subtilis 168 [2], first compound 0.0039 µg/mL, partner 2.5 µg/mL | 0.319
B. subtilis 168 [2], first compound 0.0039 µg/mL, partner 3.2 µg/mL | 0.0154
B. subtilis 168 [2], first compound 0.0039 µg/mL, partner 5 µg/mL | 0.088
B. subtilis 168 [2], first compound 0.0039 µg/mL, partner 6.4 µg/mL | 0.0555
B. subtilis 168 [2], first compound 0.0078 µg/mL, partner 1.25 µg/mL | 0.868
B. subtilis 168 [2], first compound 0.0078 µg/mL, partner 1.6 µg/mL | 0.701
B. subtilis 168 [2], first compound 0.0078 µg/mL, partner 2.5 µg/mL | 0.598
B. subtilis 168 [2], first compound 0.0078 µg/mL, partner 3.2 µg/mL | 0.0243
B. subtilis 168 [2], first compound 0.0078 µg/mL, partner 5 µg/mL | 0.112
B. subtilis 168 [2], first compound 0.0078 µg/mL, partner 6.4 µg/mL | 0.0288
B. subtilis 168 [2], first compound 0.0312 µg/mL, partner 0.5 µg/mL | 0.0428
B. subtilis 168 [2], first compound 0.0312 µg/mL, partner 1 µg/mL | 0.032
B. subtilis 168 [2], first compound 0.0312 µg/mL, partner 2 µg/mL | 0.0482
B. subtilis 168 [2], first compound 0.0312 µg/mL, partner 4 µg/mL | 0.0425
B. subtilis 168 [2], first compound 0.0312 µg/mL, partner 8 µg/mL | 0.0314
B. subtilis 168 [2], first compound 0.0312 µg/mL, partner 16 µg/mL | 0.0291
B. subtilis 168 [2], first compound 0.0625 µg/mL, partner 0.5 µg/mL | 0.0426
B. subtilis 168 [2], first compound 0.0625 µg/mL, partner 1 µg/mL | 0.0609
B. subtilis 168 [2], first compound 0.0625 µg/mL, partner 2 µg/mL | 0.0558
B. subtilis 168 [2], first compound 0.0625 µg/mL, partner 4 µg/mL | 0.0381
B. subtilis 168 [2], first compound 0.0625 µg/mL, partner 8 µg/mL | 0.0402
B. subtilis 168 [2], first compound 0.0625 µg/mL, partner 16 µg/mL | 0.0222
B. subtilis 168 [2], first compound 0.125 µg/mL, partner 0.5 µg/mL | 0.0499
B. subtilis 168 [2], first compound 0.125 µg/mL, partner 1 µg/mL | 0.0546
B. subtilis 168 [2], first compound 0.125 µg/mL, partner 2 µg/mL | 0.0347
B. subtilis 168 [2], first compound 0.125 µg/mL, partner 4 µg/mL | 0.0437
B. subtilis 168 [2], first compound 0.125 µg/mL, partner 8 µg/mL | 0.0327
B. subtilis 168 [2], first compound 0.125 µg/mL, partner 16 µg/mL | 0.0121
S. pneumoniae D39V [1], first compound 0.1725 µg/mL, partner 1.6 µg/mL | 0.157
S. pneumoniae D39V [1], first compound 0.1725 µg/mL, partner 3.2 µg/mL | 0.0386
S. pneumoniae D39V [1], first compound 0.1725 µg/mL, partner 6.4 µg/mL | 0.0067
S. pneumoniae D39V [1], first compound 0.2 µg/mL, partner 0.4275 µg/mL | 0.906
S. pneumoniae D39V [1], first compound 0.2 µg/mL, partner 0.855 µg/mL | 0.956
S. pneumoniae D39V [1], first compound 0.2 µg/mL, partner 1.71 µg/mL | 0.0809
S. pneumoniae D39V [1], first compound 0.345 µg/mL, partner 3.2 µg/mL | 0.0036
S. pneumoniae D39V [1], first compound 0.345 µg/mL, partner 6.4 µg/mL | 0.0023
S. pneumoniae D39V [1], first compound 0.4 µg/mL, partner 0.4275 µg/mL | 0.844
S. pneumoniae D39V [1], first compound 0.4 µg/mL, partner 1.71 µg/mL | 0.0708
S. pneumoniae D39V [1], first compound 0.69 µg/mL, partner 1.6 µg/mL | 0.0158
S. pneumoniae D39V [1], first compound 0.69 µg/mL, partner 3.2 µg/mL | 0.0153
S. pneumoniae D39V [1], first compound 0.69 µg/mL, partner 6.4 µg/mL | 0.0526
S. pneumoniae D39V [1], first compound 0.8 µg/mL, partner 0.4275 µg/mL | 0.298
S. pneumoniae D39V [1], first compound 0.8 µg/mL, partner 0.855 µg/mL | 0.102
S. pneumoniae D39V [1], first compound 0.8 µg/mL, partner 1.71 µg/mL | 0.0697

Details | Bliss interaction score
B. subtilis 168 [4] | 0.0523
S. aureus DSM 20231 | 0.0616
S. aureus Newman | -0.0668
S. pneumoniae D39V [3] | -0.0976
